By IC50 is commonly meant the point on the concentration scale where inhibition reaches its midpoint.

These results are taken from US20240360148A1 (SUVALENT THERAPEUTICS, INC., priority 2021, published 2024).

The target in test [1] is SAE1 (Homo sapiens (Human), UniProt Q9UBE0+Q9UBT2). Description: SAE High Throughput Biochemical Assay (HTRF), 15 min preincubation. As to conditions: read-out: 15 min preincubation HTRF IC50 (μM) Ave, SAE1 12.5 nM, ATP 100 μM. Put shortly:
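SAE1 (12.5 nM) was preincubated with compound for 15 min at RT in HEPES pH 7.5, 0.1% BSA, 10 mM MgCl2. The reaction was then started with SUMO-GST and UBC9-His (40 nM each) plus 100 μM ATP for 45 min. After KF stop, HTRF (anti-GST-XL665/anti-His-EuK) was read at 2 h and overnight; some compounds were tested singly at 25 micromolar as percent of control.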
(In general: TR-FRET usually uses a lanthanide donor and a delayed reading to cut background.)

Test [2] relates to sumoylation levels (SUMO 2/3 conjugates) in HCT-116 cells. Description: HCT-116 4 Hour Cell Assay (Western, SUMO 2/3 conjugates). It counts as cell-based. As to conditions: Homo sapiens, HCT-116, 4 h, 4 h treatment, Anti-Sumo 2-3 immunoblot, read-out: HCT-116 Western 4 h IC50 (μM) Ave. Put shortly: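 Cells treated 4 h with 11 three-fold dilutions from 25 μM; lysed in RIPA with NEM and Benzonase. Non-reducing SDS-PAGE immunoblot with anti-SUMO 2/3 mAb, IRDye fluorescent detection; conjugate signal normalized to total protein stain, IC50 from quantified bands.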
(In western blotting, separated proteins are transferred to a membrane and probed.)

SAE1, sequence (Q9UBE0 whole entry): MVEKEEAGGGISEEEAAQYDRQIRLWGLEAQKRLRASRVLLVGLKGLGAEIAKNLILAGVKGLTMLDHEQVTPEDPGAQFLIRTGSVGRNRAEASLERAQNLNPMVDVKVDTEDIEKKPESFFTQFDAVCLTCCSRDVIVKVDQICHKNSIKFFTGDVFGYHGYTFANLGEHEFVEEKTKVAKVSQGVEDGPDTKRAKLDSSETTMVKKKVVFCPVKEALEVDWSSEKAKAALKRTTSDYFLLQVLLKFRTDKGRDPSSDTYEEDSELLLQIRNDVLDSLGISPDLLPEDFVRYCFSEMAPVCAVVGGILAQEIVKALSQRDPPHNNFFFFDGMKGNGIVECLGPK
SAE1, sequence (Q9UBT2 whole entry): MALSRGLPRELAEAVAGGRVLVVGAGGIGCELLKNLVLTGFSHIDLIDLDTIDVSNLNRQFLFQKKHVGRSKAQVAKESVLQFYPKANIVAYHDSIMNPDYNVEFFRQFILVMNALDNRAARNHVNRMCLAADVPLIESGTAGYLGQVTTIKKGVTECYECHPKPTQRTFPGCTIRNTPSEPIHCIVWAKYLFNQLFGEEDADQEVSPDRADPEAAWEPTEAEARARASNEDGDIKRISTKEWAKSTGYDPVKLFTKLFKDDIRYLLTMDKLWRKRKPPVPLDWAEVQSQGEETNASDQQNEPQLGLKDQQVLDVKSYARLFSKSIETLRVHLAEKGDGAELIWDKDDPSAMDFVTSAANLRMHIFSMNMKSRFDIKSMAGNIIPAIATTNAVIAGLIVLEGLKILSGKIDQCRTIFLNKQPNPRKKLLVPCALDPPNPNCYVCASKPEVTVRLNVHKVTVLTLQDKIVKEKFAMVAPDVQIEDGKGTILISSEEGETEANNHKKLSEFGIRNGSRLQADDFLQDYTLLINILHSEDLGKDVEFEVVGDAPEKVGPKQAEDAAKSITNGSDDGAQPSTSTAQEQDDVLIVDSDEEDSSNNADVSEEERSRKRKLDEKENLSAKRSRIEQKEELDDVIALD

For `CCn1cc(-c2c(F)cccc2[C@@H]2CN(C(=O)/C=C/[C@@H]3C[C@@H](OC)CN3)Cc3sc(C#N)cc32)c(C(F)(F)F)n1` [Example 120, (S)-4-(2-(1-Ethyl-3-(trifluoromethyl)-1H pyrazol-4-yl)-3-fluorophenyl)-6-((E)-3-((2S,4R)-4-methoxypyrrolidin-2-yl)acryloyl)-4,5,6,7-tetrahydrothieno[2,3-c]pyridine-2-carbonitrile], the concentration for half-maximal inhibition (IC50) in test [1] is 0.31 µM; in test [2], 0.383 µM.

As to `CCn1cc(-c2ccccc2[C@@H]2CN(C(=O)/C=C/CN(C)C)Cc3sc(C#N)c(Cl)c32)c(C(F)(F)F)n1` [Compound 247], the IC50 in test [1] came out at 1.66 µM; in test [2] it was 0.2 µM.

`CCn1cc(-c2ccccc2[C@@H]2CN(C(=O)/C=C/[C@@H]3C[C@@H]4C[C@@H]4N3)Cc3sc(C#N)cc32)c(C(F)(F)F)n1` [Example 117, (S)-6-((E)-3-((1S,3S,5S)-2-Azabicyclo[3.1.0]hexan-3-yl)acryloyl)-4-(2-(1-ethyl-3-(trifluoromethyl)-1H pyrazol-4-yl)phenyl)-4,5,6,7-tetrahydrothieno[2,3-c]pyridine-2-carbonitrile]: the IC50 in test [1] is 1.16 µM; in test [2] it was 0.427 µM.

As for `CCn1cc(-c2c(F)cccc2[C@@H]2CN(C(=O)/C=C/[C@@H]3C[C@@H](F)CN3)Cc3sc(C#N)cc32)c(C(F)(F)F)n1` [Example 121, (S)-4-(2-(1-Ethyl-3-(trifluoromethyl)-1H pyrazol-4-yl)-3-fluorophenyl)-6-((E)-3-((2S,4R)-4-fluoropyrrolidin-2-yl)acryloyl)-4,5,6,7-tetrahydrothieno[2,3-c]pyridine-2-carbonitrile], the IC50 was determined as 0.43 µM in test [1] and 0.577 µM in test [2].

Consider `CCn1cc(-c2c(F)cccc2[C@@H]2CN(C(=O)/C=C/[C@@H]3C[C@H](F)CN3)Cc3sc(C#N)cc32)c(C(F)(F)F)n1` [Example 122, (S)-4-(2-(1-Ethyl-3-(trifluoromethyl)-1H pyrazol-4-yl)-3-fluorophenyl)-6-((E)-3-((2S,4S)-4-fluoropyrrolidin-2-yl)acryloyl)-4,5,6,7-tetrahydrothieno[2,3-c]pyridine-2-carbonitrile], for which the IC50 in test [1] worked out at 0.12 µM; in test [2], 0.0631 µM.

As for `CCn1cc(-c2ccccc2[C@@H]2CN(C(=O)/C=C/CNC(C)(C)CO)Cc3sc(C#N)cc32)c(C(F)(F)F)n1` [Compound 244], the results for the IC50 in test [1] and in test [2] were 2.88 µM and 1.97 µM, respectively.

`CCn1cc(-c2ccccc2[C@@H]2CN(C(=O)/C=C/CNC(C)(C)C)Cc3sc(C#N)cc32)c(C(F)(F)F)n1` [Example 101, (S, E)-6-(4-(tert-Butylamino)but-2-enoyl)-4-(2-(1-ethyl-3-(trifluoromethyl)-1 H-pyrazol-4-yl)phenyl)-4,5,6,7-tetrahydrothieno[2,3-c]pyridine-2-carbonitrile]: the IC50 in test [1] amounted to 2.24 µM; in test [2], 0.732 µM.

Consider `CCn1cc(-c2ccccc2[C@@H]2CN(C(=O)C#CCOC)Cc3sc(C#N)cc32)c(C(F)(F)F)n1` [Example 144, (S)-4-(2-(1-Ethyl-3-(trifluoromethyl)-1 H pyrazol-4-yl)phenyl)-6-(4-methoxybut-2-ynoyl)-4,5,6,7-tetrahydrothieno[2,3-c]pyridine-2-carbonitrile], for which the half-inhibitory concentration (IC50) came out at 0.54 µM in test [1] and 0.792 µM in test [2].

For `CCn1cc(-c2c(C3CN(C(=O)/C=C/CN(C)C)Cc4sc(C#N)cc43)csc2C)c(C(F)(F)F)n1` (stereo not shown) [Example 199, (E)-6-(4-(Dimethylamino)but-2-enoyl)-4-(4-(1-ethyl-3-(trifluoromethyl)-1 H-pyrazol-4-yl)-5-methylthiophen-3-yl)-4,5,6,7-tetrahydrothieno[2,3-c]pyridine-2-carbonitrile], the IC50 turned out to be 2.87 µM in test [1] and 1.26 µM in test [2].

`CCn1cc(-c2ccccc2[C@@H]2CN(C(=O)C#C[C@@]3(C)CCCN3)Cc3sc(C#N)cc32)c(C(F)(F)F)n1` [Example 141, (S)-4-(2-(1-Ethyl-3-(trifluoromethyl)-1 H pyrazol-4-yl)phenyl)-6-(3-((R)-2-methylpyrrolidin-2-yl)propioloyl)-4,5,6,7-tetrahydrothieno[2,3-c]pyridine-2-carbonitrile]: the IC50 in test [1] turned out to be 0.35 µM; in test [2], 4.88 µM.

Take `CCn1cc(-c2ccccc2[C@@H]2CN(C(=O)/C=C/CNC3(C)CCOCC3)Cc3sc(C#N)cc32)c(C(F)(F)F)n1` [Example 96, (S,E)-4-(2-(1-Ethyl-3-(trifluoromethyl)-1H-pyrazol-4-yl)phenyl)-6-(4-((4-methyltetrahydro-2H pyran-4-yl)amino)but-2-enoyl)-4,5,6,7-tetrahydrothieno[2,3-c]pyridine-2-carbonitrile]: the IC50 turned out to be 2.92 µM in test [1] and 2.79 µM in test [2].

For the compound `CCn1cc(-c2ccccc2[C@@H]2CN(C(=O)/C=C/CN3CCCC3)Cc3sc(C#N)cc32)c(C(F)(F)F)n1` [Example 30, (S, E)-4-(2-(1-ethyl-3-(trifluoromethyl)-1 H-pyrazol-4-yl)phenyl)-6-(4-(pyrrolidin-1-yl)but-2-enoyl)-4,5,6,7-tetrahydrothieno[2,3-c]pyridine-2-carbonitrile], the IC50 in test [1] worked out at 3.3 µM; in test [2], 0.746 µM.

With `CCn1cc(-c2ccccc2[C@@H]2CN(C(=O)/C=C/CNC(C)C)Cc3sc(C#N)cc32)c(C(F)(F)F)n1` [Example 105, (S,E)-4-(2-(1-Ethyl-3-(trifluoromethyl)-1 H-pyrazol-4-yl)phenyl)-6-(4-(isopropylamino)but-2-enoyl)-4,5,6,7-tetrahydrothieno[2,3-c]pyridine-2-carbonitrile], the IC50 was determined as 2.42 µM in test [1] and 0.62 µM in test [2].

Regarding `CCn1cc(C2=C([C@@H]3CN(C(=O)/C=C/CN(C)C)Cc4sc(C#N)cc43)CCCC2)c(C(F)(F)F)n1` [Compound 237], the figures for the IC50 in test [1] and in test [2] were 2.64 µM and 0.897 µM, respectively.

In the case of `C=CC(=O)N1Cc2sc(C#N)cc2C(c2ccc(NC(C)=O)cc2-c2cn(CC)nc2C(F)(F)F)C1` (stereo not shown) [Compound 230], the IC50 in test [1] was determined as 1.1 µM; in test [2], 5.39 µM.

Consider `[2H]C(C)(C)NC/C=C/C(=O)N1Cc2sc(C#N)cc2[C@H](c2cccc(F)c2-c2cn(CC)nc2C(F)(F)F)C1` [Example 52, (S, E)-4-(2-(1-ethyl-3-(trifluoromethyl)-1 H-pyrazol-4-yl)-3-fluorophenyl)-6-(4-((propan-2-yl-2-d)amino)but-2-enoyl)-4,5,6,7-tetrahydrothieno[2,3-c]pyridine-2-carbonitrile], for which the IC50 worked out at 0.69 µM in test [1] and 0.308 µM in test [2].

Consider `CCn1cc(-c2ccccc2[C@@H]2CN(C(=O)/C=C/CN3CCC(C)C3)Cc3sc(C#N)cc32)c(C(F)(F)F)n1` (stereo partly shown) [Example 32], for which the IC50 in test [1] is 3.9 µM; in test [2] it was 2.05 µM.

Turning to `CCn1cc(-c2c(F)cccc2[C@@H]2CN(C(=O)/C=C/[C@@H]3C[C@@H]4C[C@@H]4N3)Cc3sc(C#N)cc32)c(C(F)(F)F)n1` [Example 123, (S)-6-((E)-3-((1S,3S,5S)-2-Azabicyclo[3.1.0]hexan-3-yl)acryloyl)-4-(2-(1-ethyl-3-(trifluoromethyl)-1H pyrazol-4-yl)-3-fluorophenyl)-4,5,6,7-tetrahydrothieno[2,3-c]pyridine-2-carbonitrile], the results for the IC50 in test [1] and in test [2] were 1.17 µM and 0.178 µM, respectively.

Turning to `CCn1cc(-c2c(Cl)cccc2C2CN(C(=O)/C=C/CN(C)C)Cc3sc(C#N)cc32)c(C(F)(F)F)n1` (stereo not shown) [Example 201, (E)-4-(3-Chloro-2-(1-ethyl-3-(trifluoromethyl)-1 H-pyrazol-4-yl)phenyl)-6-(4-(dimethylamino)but-2-enoyl)-4,5,6,7-tetrahydrothieno[2,3-c]pyridine-2-carbonitrile], the IC50 in test [1] worked out at 1.56 µM; in test [2], 1.46 µM.

As to `CCn1cc(-c2ccccc2[C@@H]2CN(C(=O)/C=C/[C@H]3CCCN3)Cc3sc(C#N)cc32)c(C(F)(F)F)n1` [Example 113, (S)-4-(2-(1-Ethyl-3-(trifluoromethyl)-1 H-pyrazol-4-yl)phenyl)-6-((E)-3-((R)-pyrrolidin-2-yl)acryloyl)-4,5,6,7-tetrahydrothieno[2,3-c]pyridine-2-carbonitrile], the values for the IC50 in test [1] and in test [2] were 1.61 µM and 1.79 µM, respectively.

With `CCn1cc(-c2ccccc2[C@@H]2CN(C(=O)/C=C/[C@@H]3CCC(C)(C)N3)Cc3sc(C#N)cc32)c(C(F)(F)F)n1` [Example 79, (S)-6-((E)-3-((S)-5,5-Dimethylpyrrolidin-2-yl)acryloyl)-4-(2-(1-ethyl-3-(trifluoromethyl)-1H pyrazol-4-yl)phenyl)-4,5,6,7-tetrahydrothieno[2,3-c]pyridine-2-carbonitrile], the IC50 was 1.77 µM in test [1] and 0.324 µM in test [2].

As to `CCn1cc(-c2ccccc2[C@@H]2CN(C(=O)/C=C/[C@@H](N)CO)Cc3sc(C#N)cc32)c(C(F)(F)F)n1` [Example 74, (S)-6-((R, E)-4-Amino-5-hydroxypent-2-enoyl)-4-(2-(1-ethyl-3-(trifluoromethyl)-1 H-pyrazol-4-yl)phenyl)-4,5,6,7-tetrahydrothieno[2,3-c]pyridine-2-carbonitrile], the IC50 in test [1] worked out at 2.84 µM; in test [2], 2.24 µM.

For the compound `CC(C#N)n1cc(-c2ccccc2[C@@H]2CN(C(=O)/C=C/CN(C)C)Cc3sc(C#N)cc32)c(C(F)(F)F)n1` (stereo partly drawn) [Example 165, (4S)-4-(2-(1-(1-Cyanoethyl)-3-(trifluoromethyl)-1H-pyrazol-4-yl)phenyl)-6-((E)-4-(dimethylamino)but-2-enoyl)-4,5,6,7-tetrahydrothieno[2,3-c]pyridine-2-carbonitrile], the half-maximal inhibitory concentration (IC50) in test [1] was found to be 3.42 µM; in test [2], 1.06 µM.
